In PubChem BioAssay AID2060348 (Molecular Pharmacology Branch, DTP, NCI, 2025):

System: 885724-159-R-J1-PDC spheroids viability
Test: Anticancer human tumor 885724-159-R-J1-PDC patient-derived pancreatic adenocarcinoma cell line growth inhibition [TAK]
Conditions: spheroids with HUVEC and MSC; for IC50: curve of first compound; for viability, T/C: stronger effect = lower value
How it was run: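 Spheroids of 60% malignant cells, 25% HUVEC and 15% hMSC were exposed to targeted agents combined with TAK-243 or ipatasertib. Concentrations started at or near clinical Cmax (10 microM if unknown) and descended in half-log steps.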

[1] = second compound 0.3 µM, first compound 0.0316 µM
[2] = second compound 0.3 µM, first compound 0.1 µM
[3] = second compound 0.3 µM, first compound 0.316 µM
[4] = second compound 0.3 µM, first compound 1 µM
[5] = second compound 0.3 µM, first compound 3.16 µM
[6] = second compound 0.3 µM, first compound 10 µM
[7] = second compound 0.949 µM, first compound 0.0316 µM
[8] = second compound 0.949 µM, first compound 0.1 µM
[9] = second compound 0.949 µM, first compound 0.316 µM
[10] = second compound 0.949 µM, first compound 1 µM
[11] = second compound 0.949 µM, first compound 3.16 µM
[12] = second compound 0.949 µM, first compound 10 µM
[13] = second compound 3 µM, first compound 0.0316 µM
[14] = second compound 3 µM, first compound 0.1 µM
[15] = second compound 3 µM, first compound 0.316 µM
[16] = second compound 3 µM, first compound 1 µM
[17] = second compound 3 µM, first compound 3.16 µM
[18] = second compound 3 µM, first compound 10 µM
[19] = second compound 9.49 µM, first compound 0.0316 µM
[20] = second compound 9.49 µM, first compound 0.1 µM
[21] = second compound 9.49 µM, first compound 0.316 µM
[22] = second compound 9.49 µM, first compound 1 µM
[23] = second compound 9.49 µM, first compound 3.16 µM
[24] = second compound 9.49 µM, first compound 10 µM
[25] = second compound 30 µM, first compound 0.0316 µM
[26] = second compound 30 µM, first compound 0.1 µM
[27] = second compound 30 µM, first compound 0.316 µM
[28] = second compound 30 µM, first compound 1 µM
[29] = second compound 30 µM, first compound 3.16 µM
[30] = second compound 30 µM, first compound 10 µM
[31] = second compound 0.3 µM, first compound 0.000316 µM
[32] = second compound 0.3 µM, first compound 0.001 µM
[33] = second compound 0.3 µM, first compound 0.00316 µM
[34] = second compound 0.3 µM, first compound 0.01 µM
[35] = second compound 0.949 µM, first compound 0.000316 µM
[36] = second compound 0.949 µM, first compound 0.001 µM
[37] = second compound 0.949 µM, first compound 0.00316 µM
[38] = second compound 0.949 µM, first compound 0.01 µM
[39] = second compound 3 µM, first compound 0.000316 µM
[40] = second compound 3 µM, first compound 0.001 µM
[41] = second compound 3 µM, first compound 0.00316 µM
[42] = second compound 3 µM, first compound 0.01 µM
[43] = second compound 9.49 µM, first compound 0.000316 µM
[44] = second compound 9.49 µM, first compound 0.001 µM
[45] = second compound 9.49 µM, first compound 0.00316 µM
[46] = second compound 9.49 µM, first compound 0.01 µM
[47] = second compound 30 µM, first compound 0.000316 µM
[48] = second compound 30 µM, first compound 0.001 µM
[49] = second compound 30 µM, first compound 0.00316 µM
[50] = second compound 30 µM, first compound 0.01 µM
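Further: spheroids exposed to drugs for seven days.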
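Wherever viability, T/C is given: 100% = DMSO vehicle control viability.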

CC(C)(C)c1nc(-c2cccc(NS(=O)(=O)c3c(F)cccc3F)c2F)c(-c2ccnc(N)n2)s1 + CC(C)NCC(C(=O)N1CCN(c2ncnc3c2C(C)CC3O)CC1)c1ccc(Cl)cc1
IC50 (second compound 0.3 µM): > 10000 nM
IC50 (second compound 0.949 µM): > 10000 nM
IC50 (second compound 3 µM): > 10000 nM
IC50 (second compound 9.49 µM): 8870 nM
IC50 (second compound 30 µM): < 31.6 nM
viability, T/C [1]: 85.2%
viability, T/C [2]: 101%
viability, T/C [3]: 112%
viability, T/C [4]: 134%
viability, T/C [5]: 134%
viability, T/C [6]: 121%
viability, T/C [7]: 72.3%
viability, T/C [8]: 100%
viability, T/C [9]: 111%
viability, T/C [10]: 117%
viability, T/C [11]: 92.2%
viability, T/C [12]: 80.5%
viability, T/C [13]: 68.2%
viability, T/C [14]: 90.7%
viability, T/C [15]: 94%
viability, T/C [16]: 96%
viability, T/C [17]: 73.4%
viability, T/C [18]: 57.6%
viability, T/C [19]: 57.1%
viability, T/C [20]: 71.3%
viability, T/C [21]: 77%
viability, T/C [22]: 76.1%
viability, T/C [23]: 56.1%
viability, T/C [24]: 49.3%
viability, T/C [25]: 37.7%
viability, T/C [26]: 41.3%
viability, T/C [27]: 46.9%
viability, T/C [28]: 42.7%
viability, T/C [29]: 41.6%
viability, T/C [30]: 37.7%

CC(C)CC(NC(=O)CNC(=O)c1cc(Cl)ccc1Cl)B1OC(=O)CC(CC(=O)O)(C(=O)O)O1 (stereo not given) + CC(C)NCC(C(=O)N1CCN(c2ncnc3c2C(C)CC3O)CC1)c1ccc(Cl)cc1
IC50 (second compound 0.3 µM): 13.8 nM
IC50 (second compound 0.949 µM): 12.1 nM
IC50 (second compound 3 µM): 11.6 nM
IC50 (second compound 9.49 µM): < 0.316 nM
IC50 (second compound 30 µM): < 0.316 nM
viability, T/C [31]: 66.6%
viability, T/C [32]: 66.3%
viability, T/C [33]: 63.6%
viability, T/C [34]: 63.3%
viability, T/C [1]: 15.4%
viability, T/C [2]: 1.16%
viability, T/C [35]: 57.5%
viability, T/C [36]: 61%
viability, T/C [37]: 62.2%
viability, T/C [38]: 58.3%
viability, T/C [7]: 8.98%
viability, T/C [8]: 1.18%
viability, T/C [39]: 55.5%
viability, T/C [40]: 58.3%
viability, T/C [41]: 53.1%
viability, T/C [42]: 55.9%
viability, T/C [13]: 11.1%
viability, T/C [14]: 0.99%
viability, T/C [43]: 48.5%
viability, T/C [44]: 52.1%
viability, T/C [45]: 48.5%
viability, T/C [46]: 46.1%
viability, T/C [19]: 9.27%
viability, T/C [20]: 1.07%
viability, T/C [47]: 33.9%
viability, T/C [48]: 33.5%
viability, T/C [49]: 34.7%
viability, T/C [50]: 32.9%
viability, T/C [25]: 7.76%
viability, T/C [26]: 0.71%

CC(C)n1nc(-c2ccc3oc(N)nc3c2)c2c(N)ncnc21 + CC(C)NCC(C(=O)N1CCN(c2ncnc3c2C(C)CC3O)CC1)c1ccc(Cl)cc1
IC50 (second compound 0.3 µM): 18.5 nM
IC50 (second compound 0.949 µM): 6.88 nM
IC50 (second compound 3 µM): 3.15 nM
IC50 (second compound 9.49 µM): < 0.316 nM
IC50 (second compound 30 µM): < 0.316 nM
viability, T/C [31]: 66.2%
viability, T/C [32]: 64.1%
viability, T/C [33]: 56.8%
viability, T/C [34]: 53.9%
viability, T/C [1]: 48.6%
viability, T/C [2]: 37.1%
viability, T/C [35]: 57.2%
viability, T/C [36]: 63.5%
viability, T/C [37]: 54%
viability, T/C [38]: 47.5%
viability, T/C [7]: 38.4%
viability, T/C [8]: 33.6%
viability, T/C [39]: 58.1%
viability, T/C [40]: 61.8%
viability, T/C [41]: 47.7%
viability, T/C [42]: 38.8%
viability, T/C [13]: 31.5%
viability, T/C [14]: 28.6%
viability, T/C [43]: 47.4%
viability, T/C [44]: 45.6%
viability, T/C [45]: 38.3%
viability, T/C [46]: 30.9%
viability, T/C [19]: 25.5%
viability, T/C [20]: 23%
viability, T/C [47]: 32%
viability, T/C [48]: 29.5%
viability, T/C [49]: 30.2%
viability, T/C [50]: 20.5%
viability, T/C [25]: 19%
viability, T/C [26]: 16.4%

CCCS(=O)(=O)Nc1ccc(F)c(C(=O)c2c[nH]c3ncc(-c4ccc(Cl)cc4)cc23)c1F + CC(C)NCC(C(=O)N1CCN(c2ncnc3c2C(C)CC3O)CC1)c1ccc(Cl)cc1
IC50 (second compound 0.3 µM): > 100000 nM
IC50 (second compound 0.949 µM): > 100000 nM
IC50 (second compound 3 µM): 25100 nM
IC50 (second compound 9.49 µM): 8750 nM
IC50 (second compound 30 µM): < 316 nM
viability, T/C [3]: 79.3%
viability, T/C [4]: 93.8%
viability, T/C [5]: 104%
viability, T/C [6]: 89.7%
viability, T/C (second compound 0.3 µM, first compound 31.6 µM): 99.7%
viability, T/C (second compound 0.3 µM, first compound 100 µM): 105%
viability, T/C [9]: 66.1%
viability, T/C [10]: 78.4%
viability, T/C [11]: 76.2%
viability, T/C [12]: 74.2%
viability, T/C (second compound 0.949 µM, first compound 31.6 µM): 34.7%
viability, T/C (second compound 0.949 µM, first compound 100 µM): 76.6%
viability, T/C [15]: 66.4%
viability, T/C [16]: 71.8%
viability, T/C [17]: 67.1%
viability, T/C [18]: 63.9%
viability, T/C (second compound 3 µM, first compound 31.6 µM): 34.2%
viability, T/C (second compound 3 µM, first compound 100 µM): 58.8%
viability, T/C [21]: 58.5%
viability, T/C [22]: 58.4%
viability, T/C [23]: 58.6%
viability, T/C [24]: 48.9%
viability, T/C (second compound 9.49 µM, first compound 31.6 µM): 13.4%
viability, T/C (second compound 9.49 µM, first compound 100 µM): 47.2%
viability, T/C [27]: 37.5%
viability, T/C [28]: 40.9%
viability, T/C [29]: 36.6%
viability, T/C [30]: 12.8%
viability, T/C (second compound 30 µM, first compound 31.6 µM): 3.55%
viability, T/C (second compound 30 µM, first compound 100 µM): 23.1%
